# Data published in ChEMBL document CHEMBL5053531, “Development of BromoTag: A "Bump-and-Hole"-PROTAC System to Induce Potent, Rapid, and Selective Degradation of Tagged Target Proteins” (J Med Chem, 2021).
# Activity calls are given as the source filed them. The rule behind the calls is not given here.
# Experiments:
# [1] = Half life in C57BL/6 mouse at 5 mg/kg, iv measured up to 8 hrs by LC-MS analysis; assay type: ADME, organism-based; conditions: in vivo
# [2] = Half life in C57BL/6 mouse at 5 mg/kg, sc measured up to 8 hrs by LC-MS analysis; assay type: ADME, organism-based; conditions: in vivo
# [3] = MRT (0 to infinity) in C57BL/6 mouse at 5 mg/kg, iv measured up to 8 hrs by LC-MS analysis; conditions: in vivo
# [4] = Bioavailability in C57BL/6 mouse at 5 mg/kg, sc measured up to 8 hrs by LC-MS analysis; assay type: ADME, organism-based; conditions: in vivo
# [5] = AUC (0 to infinity) in C57BL/6 mouse at 5 mg/kg, sc measured up to 8 hrs by LC-MS analysis; assay type: ADME, organism-based; design: dose 5 mg/kg, time < 8 hrs, route sc; conditions: in vivo
# CWR22R = test: cells; conditions: Homo sapiens, 22Rv1, 48 h, read-out: pEC50 (converted)
# Description: Antiproliferative activity against human BET-sensitive 22Rv1 cells assessed as reduction in cell viability measured after 48 hrs by Celltiter-Glo assay
# [6] = Stability in mouse plasma measured up to 60 mins; assay type: ADME, cell-free; conditions: 1 h
# [7] = target: T1, von Hippel-Lindau disease tumor suppressor/Bromodomain-containing protein 2 (Homo sapiens, UniProt P25440+P40337); test: Bump and hole PROTAC activity at BromoTag-Brd2/VHL-bound E3 ligase in HEK293 cells assessed as Brd2 degradation measured after 6 hrs by Western blot analysis; assay type: cell-based
# Target sequence in this assay (P25440 whole entry): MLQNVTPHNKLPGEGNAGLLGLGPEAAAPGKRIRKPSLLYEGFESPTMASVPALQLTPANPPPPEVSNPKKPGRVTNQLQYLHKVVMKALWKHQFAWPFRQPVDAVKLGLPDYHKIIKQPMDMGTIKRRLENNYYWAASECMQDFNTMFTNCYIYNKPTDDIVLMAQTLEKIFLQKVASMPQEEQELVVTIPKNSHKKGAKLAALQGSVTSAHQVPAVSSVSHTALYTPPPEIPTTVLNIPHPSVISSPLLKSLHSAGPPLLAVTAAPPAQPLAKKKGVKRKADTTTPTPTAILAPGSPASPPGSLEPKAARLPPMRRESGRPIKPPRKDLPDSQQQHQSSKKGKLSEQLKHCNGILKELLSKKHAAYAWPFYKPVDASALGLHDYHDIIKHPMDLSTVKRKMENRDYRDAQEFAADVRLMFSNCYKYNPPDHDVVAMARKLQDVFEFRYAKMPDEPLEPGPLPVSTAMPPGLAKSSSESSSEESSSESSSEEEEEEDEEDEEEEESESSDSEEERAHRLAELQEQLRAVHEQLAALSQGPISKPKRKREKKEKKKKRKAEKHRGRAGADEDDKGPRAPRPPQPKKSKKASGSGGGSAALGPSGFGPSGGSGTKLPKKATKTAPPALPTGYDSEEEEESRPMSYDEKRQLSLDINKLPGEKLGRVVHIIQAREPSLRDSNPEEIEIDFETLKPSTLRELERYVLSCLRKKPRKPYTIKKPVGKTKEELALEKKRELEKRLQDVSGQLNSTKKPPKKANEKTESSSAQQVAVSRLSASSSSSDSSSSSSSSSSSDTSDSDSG
# Target sequence in this assay (P40337 whole entry): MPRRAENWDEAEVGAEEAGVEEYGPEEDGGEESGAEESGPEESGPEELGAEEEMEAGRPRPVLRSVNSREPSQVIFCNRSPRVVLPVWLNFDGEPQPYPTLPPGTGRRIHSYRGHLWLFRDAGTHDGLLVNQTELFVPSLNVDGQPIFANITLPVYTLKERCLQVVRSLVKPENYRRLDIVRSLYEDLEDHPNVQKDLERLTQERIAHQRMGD
# [8] = target: T1, von Hippel-Lindau disease tumor suppressor/Bromodomain-containing protein 2; test: Bump and hole PROTAC activity at BromoTag-Brd2/VHL-bound E3 ligase in HEK293 cells assessed as Brd2 degradation at 0.001 to 10 uM measured after 6 hrs by Western blot analysis; assay type: cell-based; conditions: dose 0.001-10 µM
# Target sequence in this assay (P25440 whole entry, looked up): as the sequence (P25440 whole entry) above
# Target sequence in this assay (P40337 whole entry, looked up): as the sequence (P40337 whole entry) above
# [9] = target: T1, von Hippel-Lindau disease tumor suppressor/Bromodomain-containing protein 2; test: Bump and hole PROTAC activity at BromoTag-Brd2/VHL-bound E3 ligase in HEK293 cells assessed as Brd2 degradation at 1 uM measured after 6 hrs by Western blot analysis; assay type: cell-based
# Target sequence in this assay (P25440 whole entry, looked up): as the sequence (P25440 whole entry) above
# Target sequence in this assay (P40337 whole entry, looked up): as the sequence (P40337 whole entry) above
structure (smiles),measurement,setting,value
Cc1ncsc1-c1ccc(CNC(=O)[C@@H]2C[C@@H](O)CN2C(=O)[C@@H](NC(=O)COCCOCCOCCNC(=O)C[C@@H]2N=C(c3ccc(Cl)cc3)c3c(sc(C)c3C)-n3c(C)nnc32)C(C)(C)C)cc1,half-life,[1],1.04 h
same,half-life,[2],2.95 h
same,MRT inf,[3],0.34 h
same,bioavailability,[4],83%
same,AUC(0-inf),[5],3.76 µM·h
CC[C@@H](C(=O)OCCOCCOCCOCC(=O)N[C@H](C(=O)N1C[C@@H](O)C[C@H]1C(=O)NCc1ccc(-c2scnc2C)cc1)C(C)(C)C)[C@@H]1N=C(c2ccc(Cl)cc2)c2c(sc(C)c2C)-n2c(C)nnc21,EC50,CWR22R,5.01 µM
CC[C@@H](C(=O)OCCOCCOCCOCC(=O)N[C@H](C(=O)N1C[C@H](O)C[C@H]1C(=O)NCc1ccc(-c2scnc2C)cc1)C(C)(C)C)[C@@H]1N=C(c2ccc(Cl)cc2)c2c(sc(C)c2C)-n2c(C)nnc21,Stability,[6],Stable
same,bioavailability,[4],140%
CCC(C(=O)OCCOCCCOCC(=O)N[C@H](C(=O)N1C[C@H](O)C[C@H]1C(=O)N[C@@H](C)c1ccc(-c2scnc2C)cc1)C(C)(C)C)C1N=C(c2ccc(Cl)cc2)c2c(sc(C)c2C)-n2c(C)nnc21 (mixture of isomers),pDC50,[7],7.8
CCC(C(=O)NCCOCCCOCC(=O)N[C@H](C(=O)N1C[C@H](O)C[C@H]1C(=O)N[C@@H](C)c1ccc(-c2scnc2C)cc1)C(C)(C)C)C1N=C(c2ccc(Cl)cc2)c2c(sc(C)c2C)-n2c(C)nnc21 (mixture of isomers),Brd2 degradation activity,[8],Active
CC[C@@H](C(=O)NCCOCCOCCOCC(=O)N[C@H](C(=O)N1C[C@H](O)C[C@H]1C(=O)NCc1ccc(-c2scnc2C)cc1)C(C)(C)C)[C@@H]1N=C(c2ccc(Cl)cc2)c2cc(OC)ccc2-n2c(C)nnc21 (mixture of isomers),Activity,[9],inactive
CC[C@@H](C(=O)NCCOCCOCCOCC(=O)N[C@H](C(=O)N1C[C@H](O)C[C@H]1C(=O)NCc1ccc(-c2scnc2C)cc1)C(C)(C)C)[C@@H]1N=C(c2ccc(Cl)cc2)c2ccc(OC)cc2-n2c(C)nnc21 (mixture of isomers),Activity,[9],inactive
COc1ccc2c(c1)-n1c(C)nnc1[C@H]([C@@H](C)C(=O)NCCOCCOCCOCC(=O)N[C@H](C(=O)N1C[C@H](O)C[C@H]1C(=O)NCc1ccc(-c3scnc3C)cc1)C(C)(C)C)N=C2c1ccc(Cl)cc1 (mixture of isomers),Activity,[9],inactive
Cc1ncsc1-c1ccc(CNC(=O)[C@@H]2C[C@@H](O)CN2C(=O)[C@@H](NC(=O)COCCOCCOCCNC(=O)C(C)C2N=C(c3ccc(Cl)cc3)c3c(sc(C)c3C)-n3c(C)nnc32)C(C)(C)C)cc1 (mixture of isomers),Brd2 degradation activity,[8],Active
Cc1ncsc1-c1ccc(CNC(=O)[C@@H]2C[C@@H](O)CN2C(=O)[C@@H](NC(=O)COCCOCCOCCOC(=O)C(C)C2N=C(c3ccc(Cl)cc3)c3c(sc(C)c3C)-n3c(C)nnc32)C(C)(C)C)cc1 (mixture of isomers),Brd2 degradation activity,[8],Active
Cc1ncsc1-c1ccc([C@H](C)NC(=O)[C@@H]2C[C@@H](O)CN2C(=O)[C@@H](NC(=O)COCCCOCCNC(=O)C(C)C2N=C(c3ccc(Cl)cc3)c3c(sc(C)c3C)-n3c(C)nnc32)C(C)(C)C)cc1 (mixture of isomers),Brd2 degradation activity,[8],Active
Cc1ncsc1-c1ccc([C@H](C)NC(=O)[C@@H]2C[C@@H](O)CN2C(=O)[C@@H](NC(=O)COCCCOCCOC(=O)C(C)C2N=C(c3ccc(Cl)cc3)c3c(sc(C)c3C)-n3c(C)nnc32)C(C)(C)C)cc1 (mixture of isomers),Brd2 degradation activity,[8],Active
